Reference: US4379156A, “Heterocyclic chemicals, their preparation and use” (Burroughs Wellcome Co., priority 1979, dated 1983)
Values joined by “and” are separate entries in the source; they are usually repeats but may differ in a detail not shown here. Equal entries are not always repeated. Where two headings read alike, the source gives them in different places.

Columns and labels:
[1] = system: Schistosoma mansoni; assay: Schistosomicidal activity in infected mice (proportion of dead worms); assay type: in vivo; details: 12.5 mg/kg, dead worms relative to total worms recovered, autopsy 7 to 10 days after treatment; for % kill P.O.: oral; for % kill S.C.: subcutaneous
Experimental: Male mice weighing between 18 and 20 g were each infected percutaneously with 80 to 100 cercariae of Schistosoma mansoni. Groups of 5 or 10 mice with a 7 to 9 week infection of schistosomes were dosed orally (P.O.) or subcutaneously (S.C.) with 12.5 mg/kg of the compounds to be tested, and the animals were autopsied from 7 to 10 days after treatment. The number, sex and proportional distribution of schistosomes within the mesenteric, portal and intrahepatic veins were determined, and the final assessment of dose response was made on the proportion of dead worms found in relation to the total worms recovered in the treated group.

[2] = Toxicity in adult male mice (LD50); details: mouse, in vivo, observed up to 10 days
Experimental: Groups of adult male mice were given graded doses of the compound to be tested by stomach tube (P.O.) or subcutaneously (S.C.). The animals were kept under observation at frequent intervals up to 6 hours, then at 24 hours and daily for up to 10 days for overt changes in behaviour and for fatalities.

[3] = Toxicity in adult male mice (LD50); details: mouse, in vivo, iv, I.V.
[4] = po, by stomach tube, read-out: LD50 P.O.
[5] = sc, subcutaneous, read-out: LD50 S.C.

Compound | % kill P.O. [1] | % kill S.C. [1] | LD50 at 240 h [2, 4] [mg/kg] | LD50 [3] [mg/kg] | LD50 at 240 h [2, 5] [mg/kg]
2-[2-(2-Chlorobenzoylimino)-5-nitro-4-thiazolin-3-yl]diacetamide [Example 3] | 100% and 71% | 99% and 98% | – | – | –
CC(=O)NC(=O)Cn1cc([N+](=O)[O-])sc1=NC(=O)c1ccccc1 [*(1), 2-[2-(benzoylimino)-5-nitro-4-thiazolin-3yl]diacetamide, reference compound] | 58% | 53% | 953 | 192 | –
NC(=O)Cn1cc([N+](=O)[O-])sc1=NC(=O)c1ccccc1 [*(2), 2-(benzoylimino)-5-nitro-4-thiazoline-3-acetamide, reference compound] | 8.5% | 0% | – | – | –
CC(=O)NC(=O)Cn1cc([N+](=O)[O-])sc1=NC(=O)c1ccccc1C [Example 1, 2-[2-(2-Methylbenzoylimino)-5-nitro-4-thiazolin-3-yl]diacetamide] | 80% | 100% | > 2000 | – | > 2000
CC(=O)NC(=O)Cn1cc([N+](=O)[O-])sc1=NC(=O)c1cccc([N+](=O)[O-])c1 [Example 2, 2-[2-(3-Nitrobenzoylimino)-5-nitro-4-thiazolin-3-yl]diacetamide] | 100% | 100% | > 2000 | – | > 2000
CC(=O)NC(=O)Cn1cc([N+](=O)[O-])sc1=NC(=O)c1ccccc1[N+](=O)[O-] [Example 4, 2-[2-(2-Nitrobenzoylimino)-5-nitro-4-thiazolin-3-yl]diacetamide] | 74% | 98% | – | – | –
Cc1ccccc1C(=O)N=c1sc([N+](=O)[O-])cn1CC(N)=O [Example 5, 2-[(2-Methylbenzoyl)imino]-5-nitro-4-thiazoline-3-acetamide] | – | – | > 2000 | – | > 1000
NC(=O)Cn1cc([N+](=O)[O-])sc1=NC(=O)c1cccc([N+](=O)[O-])c1 [Example 6, 2-[(3-Nitrobenzoyl)imino]-5-nitro-4-thiazoline-3-acetamide] | – | – | > 1000 | – | > 500
